Source: US6537978B1, “Oral administration of effective amounts of forms of hyaluronic acid” (Jagotec AG, priority 1996, dated 2003)

Legend:
[1] = Rat serum hyaluronic acid levels and molecular weight after oral administration (gel filtration, carbazole and aggrecan ELISA-like assay); format: in vivo; conditions: for serum/blood HA amount after oral compared with subcutaneous administration: oral 30 mg/kg vs subcutaneous 30-100 mg/kg
Method: Elisa-Like Assay for Hyaluronic Acid in Column Fractions from Serum Obtained after the Oral Administration of Sodium Hyaluronate at 30 mg/kg (400.000)Daltons Mean Average Molecular Weight Distribution (Protein Standard), 2% by Weight in Sterile Water)
using 2 mL fraction volumes.
B.) Elisa-Like Assay for Hyaluronic Acid
Prior to assay the column fractions were prepared in the following manner:
1900 μ.L of each 2 mL fraction was frozen at—80° C. and then taken to dryness on a speed vac concentrator at room temperature.
fractions were reconstituted with 125 μ.L of ddH2O and then assayed.
The sharp drop in serum hyaluronic acid levels seen at 3 and 6 hours post-feeding appears to be a real event since it was reproduced in serum analyzed from two different animals for each time point. The overall trend appears to be satisfactory. It is indicative of an initial absorption of sodium hyaluronate in the stomach (1 hour post-feeding of HA) followed by a rapid clearance of this initial “pulse” from the blood. The second “pulse” of increased serum hyaluronic acid (9-12 hours post-feeding of HA) appears then to represent a second phase of absorption, as the administered sodium hyualuronate moves into the small and large intestine. The majority of serum hyaluronic acid at 1 hour and 9 hours post-feeding of HA (FIG. 3 (A), (D)) elutes in the region of V, indicating a molecular weight >71 kDa(Kilodaltons (high molecular weight species). Between 12-24 hours post-feeding (FIG. 3 (E), (G)), there appears to be an emergence of smaller molecular weight hyaluronic acid species in the molecular weight range between about 30 and about >80 kDa, and more particularly between 71-37.7 kDa (Kilo-daltons (peaks 1,2 and 3 in FIG. 1(G), representing 55.5, 47 and 38 kDa, respectively (Protein Standard). Two assays were used to measure HA in serum: (i) carbazole, and (ii) aggrecan assay.
F: Carbazole Assay for the Determination of Glucuronic Acid
For this assay, a linear response has been achieved with hyaluronic acid standards up to 200 μg./mL, (the range of linearity is expected to be extendible to even higher standard concentrations).
Place 3 mL of 0.025 M sodium tetraborate solution in glass tubes and cool thoroughly on ice prior to addition of samples and standards.
Carefully layer (so as to avoid mixing) 0.5 mL of sample or standard over the sodium tetraborate solution in the reaction tubes and place tubes back on ice until all tubes have been prepared.
Mix the contents of each tube thoroughly with a vortex mixer and return the tube to the ice, while mixing the others, to prevent excessive heating of sample.
Place reaction tubes in a 90° C. water bath for 10 minutes and then transfer to a tub of cool water for 5-10 minutes.
Add 100 μ.L of 0.125% carbazole solution to each tube and mix thoroughly with a vortex mixer.
Re-heat the reaction tubes in the 90° C. water bath for an additional 15 minutes. Transfer to a tub of cool water for 5-10 minutes.
Measure absorbance of samples and standards at 530 nm.
After completion of the reaction,transfter 200 μ.L of each sample and standard to individual wells of a 96 well microtest plate. Immediately measure the sample absorbance at 530 ηm (550 ηm, given the available filters with some instruments) using a microplate reader. Biotinylated Aggregcan, an HA binding protein, can be used to detect low levels of HA in serum by in ELISA assay that has been published and is known to persons skilled in the art. This assay is more sensitive than the carbazole assay and was used for conformation.

neutrophils = assay: MPO (myleoperoxidase) content, neutrophil accumulation at the site of restenosis, oral HA; format: in vivo, rat; conditions: FIG. 8
Description: With respect to neutrophil accumulation, reference is to be had to FIG. 8—MPO Content (oral) where MPO is Myleoperoxidase and MPO has been assayed by the methods known to persons skilled in the art. This assay for detecting myleoperoxidase (which is an enzyme) is a good test and thus a good measure for detecting neutrophils.

[2] = Human serum hyaluronan levels and molecular weight after oral administration; format: in vivo; conditions: oral 30.0 mg/kg, m.w. less than 750,000 daltons (Protein Standard), FIG. 10
Description: FIGS. 11A, 11B and 11C illustrate the release of amounts of hyaluronic acid into the blood stream of individuals (human) who have taken hyaluronan orally and the molecular weights of the serum hyaluronan released by the bodily processes. The molecular weights of the hyaluronan released into the human blood serum appear to include amounts at peaks between 400,000 daltons and 600,000 daltons such as less than 500,000 daltons, between about 200,000 and about 300,000 such as greater than 200,000 daltons, and between about 30,000 daltons and about 80,000 daltons (determined using the Dextran Standard).
FIG. 10 illustrates the mean serum hyaluronan concentration after giving individual humans oral dosages containing 30.0 mg/kg of hyaluronan (molecular weight less than 750,000 daltons determined by the Protein Standard).

rat carotid artery = assay: Stenosis after balloon angioplasty injury of the rat carotid artery, oral HA; format: in vivo; conditions: for N/I RATIO ± S.E.M. (NEOINTIMA /INTIMA RATIO WHERE N IS NEOINTIMA AND I IS INTIMA): rat carotid artery after balloon injury, mean of four animals
Description: FIG. 6 consists of a series of photographs of the cross-sections through carotid arteries of rats showing the effects of different amounts of orally administered Hyaluronan in stenosis of the rat carotid arteries:
All vessels were injured with a fogherty balloon as described in the prior art (Forns et. al., 1994) Cross-sections of arteries of rats treated with HA, saline or left untreated are as shown:
These values represent the mean of, and standard error of the mean (S.E.M.) of, four animals. These experiments were repeated twice with similar results.
FIG. 7 illustrates the effects of oral administration of HA on Neointimal formation in rats after balloon angioplasty. Six groups of tests were conducted, each test in respect of 3 rats. Thus, the six test results shown in […] resulted from the use of 18 rats. […] This is consistent with the findings illustrated in FIGS. 6 and 8 and the discussion herein.

[3] = oral 30 mg/kg, 12-24 hours post-feeding, Protein Standard

serum/blood HA amount after oral compared with subcutaneous administration [1]: similar
molecular weight of serum hyaluronic acid, peak 1 [1, 3]: 55.5 kDa
molecular weight of serum hyaluronic acid, peak 2 [1, 3]: 47 kDa
molecular weight of serum hyaluronic acid, peak 3 [1, 3]: 38 kDa
molecular weight of the majority of serum hyaluronic acid ([1]; oral 30 mg/kg, 1 hour and 9 hours post-feeding, Protein Standard): > 71 kDa
time after administration at which serum hyaluronan levels increase ([1]; oral 30 mg/kg, FIG. 4): about 1.25 hours
first increase of serum hyaluronic acid after oral administration ([1]; single oral dose 30 mg/kg, 2% in sterile water): increased within the first hour
time window of increased serum hyaluronan levels [2]: 4 to 12 h
Substance: sodium hyaluronate [HA]
serum/blood HA amount after oral compared with subcutaneous administration ([1]; listed as sodium hyaluronate): on the order of that seen for the subcutaneous administration of this compound at 30-100 mg/kg
time course of HA in blood after oral administration ([1]; oral 30 mg/kg, FIG. 3): burst of HA in blood one hour after administration, a decrease for five hours followed by a steady increase over the next eighteen hours
serum hyaluronic acid after the first pulse ([1]; single oral dose 30 mg/kg, 3 and 6 hours post-feeding): sharp decrease to background levels in normal serum at 3 and 6 hours post-feeding
second increase of serum hyaluronic acid ([1]; single oral dose 30 mg/kg, from 9 hours post-feeding): increase at 9 hours post-feeding of HA and this increase is sustained over the time period extending up to 24 hours
neutrophil number (MPO content) at the site of restenosis (neutrophils): reduces the number of neutrophils
N/I RATIO ± S.E.M. (NEOINTIMA /INTIMA RATIO WHERE N IS NEOINTIMA AND I IS INTIMA) (rat carotid artery; 1 mg/kg orally): 2.6 ± 0.8
N/I RATIO ± S.E.M. (NEOINTIMA /INTIMA RATIO WHERE N IS NEOINTIMA AND I IS INTIMA) (rat carotid artery; 3 mg/kg orally): 1.7 ± 0.4
N/I RATIO ± S.E.M. (NEOINTIMA /INTIMA RATIO WHERE N IS NEOINTIMA AND I IS INTIMA) (rat carotid artery; 10 mg/kg orally): 0.4 ± 0.03
N/I RATIO ± S.E.M. (NEOINTIMA /INTIMA RATIO WHERE N IS NEOINTIMA AND I IS INTIMA) (rat carotid artery; 30 mg/kg orally): 0.99 ± 0.06
N/I RATIO ± S.E.M. (NEOINTIMA /INTIMA RATIO WHERE N IS NEOINTIMA AND I IS INTIMA) (rat carotid artery; 100 mg/kg orally): 1.1 ± 0.08
neointimal to total wall ratio, order of the dose groups (rat carotid artery; oral HA, rats after balloon angioplasty, 3 rats per group, FIG. 7): greater for administration of saline, followed by the administration of HA in amounts per kilogram of body weight of 1 mg, then 100 mg, 10 mg and 3 mg
oral dose with optimal effects on smooth muscle cell proliferation (rat carotid artery; oral administration, rat, FIG. 6): 3 to 10 mg/kg
